{"source": "patent US9487530B2", "about": "“Transient protection of normal cells during chemotherapy” (G1 Therapeutics, Inc., priority 2013, dated 2016)", "key": {"[1]": {"test": "Metabolic stability in liver microsomes", "assay_type": "in vitro ADME", "conditions": "each of the species tested (human, monkey, dog, rat, mouse); 1 uM", "experimental": "Human, mouse, and dog liver microsomes were purchased from Xenotech, and Sprague-Dawley rat liver microsomes were prepared by Absorption Systems. The reaction mixture comprising 0.5 mg/mL of liver microsomes, 100 mM of potassium phosphate, pH 7.4, 5 mM of magnesium chloride, and 1 uM of test compound was prepared. The test compound was added into the reaction mixture at a final concentration of 1 uM. An aliquot of the reaction mixture (without cofactor) was incubated in shaking water bath at 37 deg. C. for 3 minutes. The control compound, testosterone, was run simultaneously with the test compound in a separate reaction. The reaction was initiated by the addition of cofactor (NADPH), and the mixture was then incubated in a shaking water bath at 37 deg. C. Aliquots (100 μL) were withdrawn at 0, 10, 20, 30, and 60 minutes for the test compound and 0, 10, 30, and 60 minutes for testosterone. […] Test compound samples were analyzed using the Orbitrap high resolution mass spectrometer to quantify the disappearance of parent test compound and detect the appearance of metabolites. […] Half-lives were calculated using GraphPad software, fitting to a single-phase exponential decay equation.\nWhen calculated half-life was longer than the duration of the experiment, the half-life was expressed as >the longest incubation time. The calculated half-life is also listed in parentheses. […]"}, "HSPCs": {"system": "HSPCs", "test": "Bone marrow HSPC proliferation by EdU incorporation and flow cytometry", "assay_type": "in vivo, mouse", "experimental": "Mice were then sacrificed at the indicated times (0, 12, 24, 36, or 48 hours following compound administration), and bone marrow was harvested (n=3 mice per time point), as previously described (Johnson et al. J. Clin. Invest. (2010) 120(7), 2528-2536). Four hours before the bone marrow was harvested, mice were treated with 100 μg of EdU by intraperitoneal injection (Invitrogen). Bone marrow mononuclear cells were harvested and immunophenotyped using previously described methods and percent EdU positive cells were then determined (Johnson et al. J. Clin. Invest. (2010) 120(7), 2528-2536). In brief, HSPCs were identified by expression of lineage markers (Lin−), ScaI (S+), and c-Kit (K+).\nFour hours before animals were sacrificed and the bone marrow was harvested, mice were treated with 100 μg of EdU by intraperitoneal injection. Three mice per group were sacrificed at 12 hours and the remaining three animals per group were sacrificed at 24 hours. Results are shown in FIG. 6A as the ratio of EdU positive cells for treated animals at 12 or 24 hour time points compared to control.\nFurther experiments were completed with Compound T examining dose response and longer periods of compound treatment. […] […].\nBoth compounds were administered at 150 mg/kg by oral gavage. One hour prior to harvesting bone marrow, EdU was IP injected to label cycling cells. Bone marrow was harvested at 12, 24, 36, and 48 hours after compound treatment and the percentage of EdU positive HSPC cells was determined at each time point."}, "[2]": {"system": "WM2664 cells (CDK4/6-dependent cell line)", "test": "Cell cycle arrest (propidium iodide), WM2664", "assay_type": "cell-based", "conditions": "300 nM for 24 hours", "description": "(§1) To test the ability of Cdk4/6 inhibitors to induce a clean G1-arrest, a cell based screening method was used consisting of two Cdk4/6-dependent cell lines (tHS68 and WM2664; Rb-positive) and one Cdk4/6-independent (A2058; Rb-negative) cell line. […] At the conclusion of the experiment, cells were harvested, fixed, and stained with propidium iodide (a DNA intercalator), which fluoresces strongly red (emission maximum 637 nm) when excited by 488 nm light. Samples were run on Dako Cyan flow cytometer and >10,000 events were collected for each sample. Data were analyzed using FlowJo 2.2 software developed by TreeStar, Inc."}, "[3]": {"system": "A2058 cells (CDK4/6-independent cell line)", "test": "Cell cycle arrest (propidium iodide), A2058", "assay_type": "cell-based", "conditions": "300 nM for 24 hours", "description": "as §1"}, "[4]": {"system": "Rb phosphorylation at Ser780 and Ser807/811", "test": "Rb phosphorylation western blot", "assay_type": "cell-based", "conditions": "300 nM; Rb-dependent cell lines (tHS68, WM2664); by 16 hours post exposure", "experimental": "The Cdk4/6-cyclin D complex is essential for progression from G1 to the S-phase of the DNA cell cycle. This complex phosphorylates the retinoblastoma tumor suppressor protein (Rb). […] Samples were lysed and protein was assayed by western blot analysis. Rb phosphorylation was measured at two sites targeted by the Cdk4/6-cyclin D complex, Ser780 and Ser807/811 using species specific antibodies."}, "[5]": {"system": "Rb-positive cell line (WM2664 or tHS68)", "test": "EdU proliferation, RB-intact Cdk4/6-dependent cell line", "assay_type": "cell-based", "conditions": "24 hours treatment", "experimental": "The effect of Cdk4/6 inhibition on proliferation was measured by EdU incorporation. An RB-intact, Cdk4/6-dependent cell line (WM2664 or tHS68) and a panel of RB-negative SCLC cell lines (H69, H82, H209, H345, NCI417, or SHP-77) were analyzed for growth inhibition by the various CDK4/6 inhibitors."}, "blood cell counts": {"system": "blood cell counts", "test": "5FU-induced myelosuppression, single dose", "assay_type": "in vivo, mouse", "conditions": "150 mg/kg oral, 30 minutes before 5FU 150 mg/kg i.p.", "experimental": "Complete blood cell counts were measured every two days starting on day six."}, "[6]": {"system": "human renal proximal tubule cells", "test": "gamma-H2AX and caspase 3/7 in renal proximal tubule cells with cisplatin", "assay_type": "cell-based", "experimental": "Normal renal proximal tubule epithelial cells were obtained from American Type Culture Collection (ATCC, Manassas, Va.). Cells were grown in an incubator at 37° C. in a humidified atmosphere of 5% CO2 in Renal Epithelial Cell Basal Media (ATCC) supplemented with Renal Epithelial Cell Growth Kit (ATCC) in 37° C. humidified incubator. […] For the γ-H2AX assay, cells were fixed, permeabilized, and stained with anti-γ-H2AX as per the γ-H2AX Flow Kit (Millipore) and quantitated by flow cytometry. Data was analyzed using FlowJo 2.2 software developed by TreeStar, Inc. Caspase 3/7 activation was measured using the Caspase-Glo 3/7 Assay System (Promega, Madison, Wis.) by following the manufacturer's instructions."}}, "data": [{"smiles": "CN1CCN(c2ccc(Nc3ncc4cc5n(c4n3)C3(CCCCC3)CNC5=O)nc2)CC1", "note": "[T, 2′-((5-(4-methylpiperazin-1-yl)pyridin-2-yl)amino)-7′,8′-dihydro-6′H-spiro[cyclohexane-1,9′-pyrazino[1′,2′:1,5]pyrrolo[2,3-d]pyrimidin]-6′-one]", "values": [{"measurement": "half-life in liver microsomes", "setting": "[1]", "value": "shorter half-life than PD0332991"}, {"measurement": "EdU incorporation into HSPCs compared to control", "setting": "HSPCs; 150 mg/kg oral gavage, 12 and 24 hours, FIG. 6A", "value": "reduction in EdU incorporation at 12 hours which was starting to return to normal at 24 hours"}, {"measurement": "time by which proliferation of HSPCs resumes", "setting": "HSPCs; single 150 mg/kg oral dose, FIG. 7", "value": "≤ 24", "unit": "h"}, {"measurement": "S-phase peak", "setting": "[2]", "value": "causes a loss of the S-phase peak"}, {"measurement": "S-phase peak", "setting": "[3]", "value": "does not cause a loss of the S-phase peak"}, {"measurement": "Rb phosphorylation", "setting": "[4]", "value": "blocks Rb phosphorylation"}, {"measurement": "proliferation (cells in S-phase by EdU)", "setting": "[5]", "value": "inhibits"}, {"measurement": "recovery of blood cell lineages after 5FU", "setting": "blood cell counts", "value": "more rapid recovery"}, {"measurement": "caspase 3/7 activation", "setting": "[6]; cisplatin 25 uM, 50 uM, or 100 uM", "value": "dose-dependent reduction in caspase 3/7 activation"}, {"measurement": "DNA damage as measured by gamma-H2AX formation", "setting": "[6]; in combination with 25 uM cisplatin", "value": "attenuated DNA damage"}]}]}
